Reference: PubChem BioAssay (NCI)
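GI50 marks 50% less growth. Definition used: TGI = concentration required for complete inhibition of growth.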

Columns and labels:
Assay in all cases: DTP human tumour cell line panel, 384-well format
786-0 renal = tested on: 786-0 renal
A498 renal = tested on: A498 renal
A549 NSCLC = tested on: A549 NSCLC
ACHN renal = tested on: ACHN renal
BT-549 breast = tested on: BT-549 breast
CAKI-1 renal = tested on: CAKI-1 renal
CCRF-CEM leukemia = tested on: CCRF-CEM leukemia
COLO 205 colon = tested on: COLO 205 colon
DU-145 prostate = tested on: DU-145 prostate
EKVX NSCLC = tested on: EKVX NSCLC
HCC-2998 colon = tested on: HCC-2998 colon
HCT-116 colon = tested on: HCT-116 colon
HCT-15 colon = tested on: HCT-15 colon
HL-60(TB) leukemia = tested on: HL-60(TB) leukemia
HOP-62 NSCLC = tested on: HOP-62 NSCLC
HOP-92 NSCLC = tested on: HOP-92 NSCLC
HS 578T breast = tested on: HS 578T breast
HT29 colon = tested on: HT29 colon
IGROV1 ovarian = tested on: IGROV1 ovarian
K-562 leukemia = tested on: K-562 leukemia
KM12 colon = tested on: KM12 colon
LOX IMVI melanoma = tested on: LOX IMVI melanoma
M14 melanoma = tested on: M14 melanoma
MALME-3M melanoma = tested on: MALME-3M melanoma
MCF7 breast = tested on: MCF7 breast
MDA-MB-231 breast = tested on: MDA-MB-231 breast
MDA-MB-435 melanoma = tested on: MDA-MB-435 melanoma
MDA-MB-468 breast = tested on: MDA-MB-468 breast
MOLT-4 leukemia = tested on: MOLT-4 leukemia
NCI-H226 lung = tested on: NCI-H226 lung
NCI-H23 lung = tested on: NCI-H23 lung
NCI-H322M lung = tested on: NCI-H322M lung
NCI-H460 NSCLC = tested on: NCI-H460 NSCLC
NCI-H522 lung = tested on: NCI-H522 lung
NCI/ADR-RES ovarian = tested on: NCI/ADR-RES ovarian
OVCAR-3 ovarian = tested on: OVCAR-3 ovarian
OVCAR-4 ovarian = tested on: OVCAR-4 ovarian
OVCAR-5 ovarian = tested on: OVCAR-5 ovarian
OVCAR-8 ovarian = tested on: OVCAR-8 ovarian
PC-3 prostate = tested on: PC-3 prostate
RPMI-8226 leukemia = tested on: RPMI-8226 leukemia
RXF 393 renal = tested on: RXF 393 renal
SF-268 CNS = tested on: SF-268 CNS
SF-295 CNS = tested on: SF-295 CNS
SF-539 CNS = tested on: SF-539 CNS
SK-MEL-28 melanoma = tested on: SK-MEL-28 melanoma
SK-MEL-5 melanoma = tested on: SK-MEL-5 melanoma
SK-OV-3 ovarian = tested on: SK-OV-3 ovarian
SN12C renal = tested on: SN12C renal
SNB-19 CNS = tested on: SNB-19 CNS
SNB-75 CNS = tested on: SNB-75 CNS
SR leukemia = tested on: SR leukemia
SW-620 colon = tested on: SW-620 colon
T-47D breast = tested on: T-47D breast
TK-10 renal = tested on: TK-10 renal
U251 glioblastoma = tested on: U251 glioblastoma
UACC-257 melanoma = tested on: UACC-257 melanoma
UO-31 renal = tested on: UO-31 renal

In the case of `CCN1C(=O)CNc2ncc(-c3ccc(-c4ncn[nH]4)nc3C)nc21`, the GI50 ([…]-0 renal) is reported as 46.2 nM, the TGI (786-0 renal) is reported as 375 nM and the GI50 (A498 renal) is reported as 14.1 nM. It also gave a TGI (A498 renal) of 82 nM, a GI50 (A549 NSCLC) of 27.5 nM and a TGI (A549 NSCLC) of 181 nM. It also gave a GI50 (ACHN renal) of 20 nM, a TGI (ACHN renal) of 94 nM and a GI50 (BT-549 breast) of 15.8 nM. For the same compound, the TGI (BT-549 breast) was 53.1 nM, the GI50 (CAKI-1 renal) was 18.4 nM and the TGI (CAKI-1 renal) was 53.3 nM. It also gave a GI50 (CCRF-CEM leukemia) of 23.4 nM, a TGI (CCRF-CEM leukemia) of 135 nM and a GI50 (COLO 205 colon) of 21.8 nM. It also gave a TGI (COLO 205 colon) of 145 nM, a GI50 (DU-145 prostate) of 34.1 nM and a TGI (DU-145 prostate) of 240 nM. The GI50 (EKVX NSCLC) was 19.1 nM, the TGI (EKVX NSCLC) was 115 nM and the GI50 (HCC-2998 colon) was 52.6 nM. The TGI (HCC-2998 colon) was 285 nM, the GI50 (HCT-116 colon) was 45 nM and the TGI (HCT-116 colon) was 193 nM. For the same compound, the GI50 (HCT-15 colon) was 32 nM, the TGI (HCT-15 colon) was 1040 nM and the GI50 (HL-60(TB) leukemia) was 25.9 nM. For the same compound, the TGI (HL-60(TB) leukemia) was 59.8 nM, the GI50 (HOP-62 NSCLC) was 16.8 nM and the TGI (HOP-62 NSCLC) was 49 nM. It also gave a GI50 (HOP-92 NSCLC) of 19.6 nM, a TGI (HOP-92 NSCLC) of 145 nM and a GI50 (HS 578T breast) of 11.2 nM. For the same compound, the TGI (HS 578T breast) was 34.7 nM, the GI50 (HT29 colon) was 42.7 nM and the TGI (HT29 colon) was 1740 nM. For the same compound, the GI50 (IGROV1 ovarian) was 12.4 nM, the TGI (IGROV1 ovarian) was 46.7 nM and the GI50 (K-562 leukemia) was 46.5 nM. It also gave a TGI (K-562 leukemia) of 1700 nM, a GI50 (KM12 colon) of 28 nM and a TGI (KM12 colon) of 1420 nM. For the same compound, the GI50 (LOX IMVI melanoma) was 41.2 nM, the TGI (LOX IMVI melanoma) was 150 nM and the GI50 (M14 melanoma) was 18.7 nM. For the same compound, the TGI (M14 melanoma) was 420 nM, the GI50 (MALME-3M melanoma) was < 10 nM and the TGI (MALME-3M melanoma) was 41 nM. For the same compound, the GI50 (MCF7 breast) was < 10 nM, the TGI (MCF7 breast) was 101 nM and the GI50 (MDA-MB-231 breast) was 23.1 nM. It also gave a TGI (MDA-MB-231 breast) of 12700 nM, a GI50 (MDA-MB-435 melanoma) of 36.3 nM and a TGI (MDA-MB-435 melanoma) of 284 nM. For the same compound, the GI50 (MDA-MB-468 breast) was 16 nM, the TGI (MDA-MB-468 breast) was 75.1 nM and the GI50 (MOLT-4 leukemia) was 11.8 nM. It also gave a TGI (MOLT-4 leukemia) of 27.4 nM, a GI50 (NCI-H226 lung) of 18.3 nM and a TGI (NCI-H226 lung) of 69.6 nM. The GI50 (NCI-H23 lung) was 18.4 nM, the TGI (NCI-H23 lung) was 52.4 nM and the GI50 (NCI-H322M lung) was 27.7 nM. For the same compound, the TGI (NCI-H322M lung) was 507 nM, the GI50 (NCI-H460 NSCLC) was 10.7 nM and the TGI (NCI-H460 NSCLC) was 146 nM. For the same compound, the GI50 (NCI-H522 lung) was 14 nM, the TGI (NCI-H522 lung) was 134 nM and the GI50 (NCI/ADR-RES ovarian) was 37.2 nM. For the same compound, the TGI (NCI/ADR-RES ovarian) was 220 nM, the GI50 (OVCAR-3 ovarian) was 29.8 nM and the TGI (OVCAR-3 ovarian) was 227 nM. It also gave a GI50 (OVCAR-4 ovarian) of 15.4 nM, a TGI (OVCAR-4 ovarian) of 178 nM and a GI50 (OVCAR-5 ovarian) of 28.5 nM. The TGI (OVCAR-5 ovarian) was 2430 nM, the GI50 (OVCAR-8 ovarian) was 32.7 nM and the TGI (OVCAR-8 ovarian) was 1070 nM. For the same compound, the GI50 (PC-3 prostate) was 10.5 nM, the TGI (PC-3 prostate) was 48.2 nM and the GI50 (RPMI-8226 leukemia) was < 10 nM. It also gave a TGI (RPMI-8226 leukemia) of 12.3 nM, a GI50 (RXF 393 renal) of 22.1 nM and a TGI (RXF 393 renal) of 63.9 nM. The GI50 (SF-268 CNS) was 18.6 nM, the TGI (SF-268 CNS) was 52.6 nM and the GI50 (SF-295 CNS) was < 10 nM. The TGI (SF-295 CNS) was 32.8 nM, the GI50 (SF-539 CNS) was 36 nM and the TGI (SF-539 CNS) was 271 nM. For the same compound, the GI50 (SK-MEL-28 melanoma) was 23.5 nM, the TGI (SK-MEL-28 melanoma) was 174 nM and the GI50 (SK-MEL-5 melanoma) was < 10 nM. It also gave a TGI (SK-MEL-5 melanoma) of 39.9 nM, a GI50 (SK-OV-3 ovarian) of 21.7 nM and a TGI (SK-OV-3 ovarian) of 184 nM. For the same compound, the GI50 (SN12C renal) was 28.2 nM, the TGI (SN12C renal) was 333 nM and the GI50 (SNB-19 CNS) was 64.6 nM. For the same compound, the TGI (SNB-19 CNS) was 706 nM, the GI50 (SNB-75 CNS) was < 10 nM and the TGI (SNB-75 CNS) was 37.9 nM. The GI50 (SR leukemia) was 11.1 nM, the TGI (SR leukemia) was 24.9 nM and the GI50 (SW-620 colon) was 32 nM. The TGI (SW-620 colon) was 1130 nM, the GI50 (T-47D breast) was < 10 nM and the TGI (T-47D breast) was 34.3 nM. For the same compound, the GI50 (TK-10 renal) was 23.4 nM, the TGI (TK-10 renal) was 143 nM and the GI50 (U251 glioblastoma) was 38.5 nM. It also gave a TGI (U251 glioblastoma) of 217 nM, a GI50 (UACC-257 melanoma) of 40.2 nM and a TGI (UACC-257 melanoma) of 270 nM. The GI50 (UO-31 renal) was 17.9 nM and the TGI (UO-31 renal) was 91 nM.
